Source: patent US8071600B2, “Derivatives of 4-piperazin-1-yl-4-benzo[B]thiophene suitable for the treatment of CNS disorders” (Otsuka Pharmaceutical Co., Ltd., priority 2005, dated 2011)
Counter-ions that a name gives are not always drawn.

Assays:
[1] = molecular target: T1, Serotonin 5-HT2A receptor (Rattus norvegicus, UniProt P14842); assay: Serotonin 5-HT2A receptor binding assay ([3H]-Ketanserin); details: Serotonin 5-HT2A receptor binding test, rat frontal cortex membrane, Ki calculated from IC50 by Cheng-Prussoff formula
T1 construct: from tissue; host or cells: Wistar rat brain, frontal cortex membranes
Description: 2) Serotonin 5-HT2A Receptor Binding Assay
The assay was performed according to the method by Leysen J E et al. (Leysen J E, Niemegeers C J E, Van Nueten J M and Laduron P M. [3H] Ketanserin (R 41 468), a selective 3H-ligand for serotonin 2 receptor binding sites. Mol. Pharmacol., 1982, 21: 301-314).
Wistar male rats were decapitated, the brain was retrieved immediately and frontal cortex was taken out. It was homogenized in 0.25 M sucrose of a volume 10 times of the weight of the tissue using a Teflon glass homogenizer, and centrifuged at 4° C., 1,000×g for 10 minutes. The obtained supernatant was transferred to another centrifuge tube and suspended in 0.25 M sucrose of a volume 5 times of the weight of the tissue and the precipitate was centrifuged in the above-described condition. The obtained supernatant was combined with the supernatant obtained above and adjusted to a volume 40 times of the weight of the tissue with 50 mM Tris-hydrochloric acid buffer (pH 7.4), and centrifuged at 4° C., 35,000×g for 10 minutes. The obtained precipitate was suspended again in the above-described buffer of a volume 40 times of the weight of the tissue and centrifuged in the above-described condition. The obtained precipitate was suspended in the above-described buffer of a volume 20 times of the weight of the tissue and preserved by freezing at −85° C. till it was used for binding assay as a membrane specimen.
The binding assay was performed using 40 μl of the membrane specimen, 20 μl of [^3H]-Ketanserin (final concentration 1 to 3 nM), 20 μl of a test drug and 50 mM Tris-hydrochloric acid buffer (pH 7.4) so that the total amount was 200 μl (final dimethylsulfoxide concentration 1%). The reaction was performed at 37° C. for 20 minutes and terminated by conducting suction filtration with a cell harvester on a glass fiber filter plate.
The filter plate made of glass fiber was washed with 50 mM Tris-hydrochloric acid buffer (pH 7.4), and after dried, a microplate liquid scintillation cocktail was added and the radioactivity was measured with a microplate scintillation counter. Radioactivity in the presence of 10 μM spiperone was assumed as nonspecific binding.
(§1) IC50 value was calculated from concentration-dependent reaction using a non-linear analysis program. Ki value was calculated from IC50 value using Cheng-Prussoff formula.

[2] = molecular target: T2, Dopamine D2 receptor (Rattus norvegicus, UniProt P61169); assay: Dopamine D2 receptor binding assay ([3H]-raclopride); details: Dopamine D2 receptor binding test, rat corpus striatum membrane, Ki calculated from IC50 by Cheng-Prussoff formula
T2 construct: from tissue; host or cells: Wistar rat brain, corpus striatum membranes
Description: 1) Dopamine D2 Receptor Binding Assay
The assay was performed according to the method by Kohler et al. (Kohler C, Hall H, Ogren S O and Gawell L, Specific in vitro and in vivo binding of 3H-raclopride. A potent substituted benzamide drug with high affinity for dopamine D-2 receptors in the rat brain. Biochem. Pharmacol., 1985; 34: 2251-2259).
Wistar male rats were decapitated, the brain was retrieved immediately and corpus striatum was taken out. It was homogenized in 50 mM tris(hydroxymethyl)aminomethane (Tris)-hydrochloric acid buffer (pH 7.4) of a volume 50 times of the weight of the tissue using a homogenizer with a high-speed rotating blade, and centrifuged at 4° C., 48,000×g for 10 minutes. The obtained precipitate was suspended again in the above-described buffer of a volume 50 times of the weight of the tissue and after incubated at 37° C. for 10 minutes, centrifuged in the above-described condition. The obtained precipitate was suspended in 50 mM (Tris)-hydrochloric acid buffer (containing 120 mM NaCl, 5 mM KCl, 2 mM CaCl2, 1 mM MgCl2, pH 7.4) of a volume 25 times of the weight of the tissue and preserved by freezing at −85° C. till it was used for binding assay as a membrane specimen.
The binding assay was performed using 40 μl of the membrane specimen, 20 μl of [^3H]-raclopride (final concentration 1 to 2 nM), 20 μl of a test drug and 50 mM Tris-hydrochloric acid buffer (containing 120 mM NaCl, 5 mM KCl, 2 mM CaCl2, 1 mM MgCl2, pH 7.4) so that the total amount was 200 μl (final dimethylsulfoxide concentration 1%). The reaction was performed at room temperature for 1 hour and terminated by conducting suction filtration with a cell harvester on a glass fiber filter plate. The filter plate made of glass fiber was washed with 50 mM Tris-hydrochloric acid buffer (pH 7.4), and after dried, a microplate liquid scintillation cocktail was added and the radioactivity was measured with a microplate scintillation counter. Radioactivity in the presence of 10 μM (+)-butaclamol hydrochloride was assumed as nonspecific binding.
as §1

T2 sequence (P61169 whole entry): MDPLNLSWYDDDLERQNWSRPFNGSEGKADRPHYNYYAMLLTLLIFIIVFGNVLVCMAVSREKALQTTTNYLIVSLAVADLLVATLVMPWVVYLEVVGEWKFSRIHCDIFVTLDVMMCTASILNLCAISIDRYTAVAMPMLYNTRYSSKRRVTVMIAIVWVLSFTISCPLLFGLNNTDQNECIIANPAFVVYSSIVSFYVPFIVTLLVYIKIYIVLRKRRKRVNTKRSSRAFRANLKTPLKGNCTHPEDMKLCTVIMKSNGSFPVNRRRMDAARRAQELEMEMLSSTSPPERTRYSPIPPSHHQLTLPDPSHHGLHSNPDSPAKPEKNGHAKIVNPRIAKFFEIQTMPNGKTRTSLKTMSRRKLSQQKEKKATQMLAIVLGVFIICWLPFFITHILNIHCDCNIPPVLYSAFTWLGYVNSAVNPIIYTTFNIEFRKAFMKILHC
T1 sequence (P14842 whole entry): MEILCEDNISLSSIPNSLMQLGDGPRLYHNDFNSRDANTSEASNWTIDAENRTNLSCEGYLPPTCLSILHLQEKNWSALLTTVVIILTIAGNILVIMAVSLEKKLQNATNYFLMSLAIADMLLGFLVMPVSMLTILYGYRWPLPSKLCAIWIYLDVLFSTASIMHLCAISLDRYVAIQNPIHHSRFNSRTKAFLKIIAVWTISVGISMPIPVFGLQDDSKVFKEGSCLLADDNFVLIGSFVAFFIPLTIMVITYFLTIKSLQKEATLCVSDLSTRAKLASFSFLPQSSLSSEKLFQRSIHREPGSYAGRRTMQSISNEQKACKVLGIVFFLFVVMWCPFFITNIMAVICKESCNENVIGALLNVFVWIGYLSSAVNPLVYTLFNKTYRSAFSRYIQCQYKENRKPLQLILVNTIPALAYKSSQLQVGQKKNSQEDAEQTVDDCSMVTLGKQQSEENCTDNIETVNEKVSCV

Compound | melting point | Ki [1] | Ki [2]
Cl.c1cc(N2CCN(CCCOc3ccc4c(c3)CCN4)CC2)c2ccsc2c1 | 222.4 to 223.9 °C | – | –
CN(C)C(=O)Nc1cc(OCCCN2CCN(c3cccc4sccc34)CC2)n(C)n1.Cl | 174 to 176.5 °C | – | –
Cn1nc(C(N)=O)cc1OCCCN1CCN(c2cccc3sccc23)CC1 [Example 4, 5-[3-(4-benzo[b]thiophen-4-yl-piperazin-1-yl)propoxy]-1-methyl-1H-pyrazole-3-carboxamide] | – | 7.7 nM | 1.9 nM
NC(=O)c1csc(OCCCN2CCN(c3cccc4sccc34)CC2)n1 [Example 7, 2-[3-(4-benzo[b]thiophen-4-yl-piperazin-1-yl)propoxy]thiazole-4-carboxamide] | – | 2.9 nM | 0.8 nM
COC(=O)N(C)c1cc(C)c(OCCCN2CCN(c3cccc4sccc34)CC2)c(OC)c1 [Example 17, methyl N-methyl-{4-[3-(4-benzo[b]thiophen-4-yl-piperazin-1-yl)propoxy]-3-methoxy-5-methylphenyl}carbamate hydrochloride] | – | 3.4 nM | 0.6 nM
CCNC(=O)c1ccc(OCCCN2CCN(c3cccc4sccc34)CC2)nc1 [Example 26] | – | 0.8 nM | 2.6 nM
CCNC(=O)c1ccnc(OCCCN2CCN(c3cccc4sccc34)CC2)c1 [Example 32] | – | 1.4 nM | 2.5 nM
Cc1ccc(OCCCN2CCN(c3cccc4sccc34)CC2)cn1 [Example 40] | – | 0.6 nM | 3.1 nM
CNC(=O)c1cc(OCCCN2CCN(c3cccc4sccc34)CC2)ncn1 [Example 58] | – | 4.9 nM | 2 nM
CCNC(=O)c1cc(OCCCN2CCN(c3cccc4sccc34)CC2)n(C)n1 [Example 62] | – | 4.7 nM | 1.6 nM
CCNC(=O)c1cc(OCCCN2CCN(c3cccc4sccc34)CC2)no1 [Example 72] | – | 3.4 nM | 3.4 nM
CCNC(=O)c1csc(OCCCN2CCN(c3cccc4sccc34)CC2)n1 [Example 73] | – | 5.6 nM | 1.3 nM
CNC(=O)c1cc(OCCCN2CCN(c3cccc4sccc34)CC2)cs1 [Example 76] | – | 1.7 nM | 2.5 nM
c1cc(N2CCN(CCCCOc3ccncc3)CC2)c2ccsc2c1 [Example 80] | – | 3.3 nM | 1.6 nM
Cn1cnc2ccc(OCCCN3CCN(c4cccc5sccc45)CC3)cc2c1=O [Example 95] | – | 2.3 nM | 1.9 nM
O=c1[nH]c2ccc(OCCCN3CCN(c4cccc5sccc45)CC3)cc2[nH]1 [Example 112] | – | 0.7 nM | 1 nM
Cc1cc(=O)oc2cc(OCCCN3CCN(c4cccc5sccc45)CC3)ccc12 [Example 115] | – | 3.7 nM | 1.6 nM
Cn1cnc2cc(OCCCN3CCN(c4cccc5sccc45)CC3)ccc21 [Example 121] | – | 1.5 nM | 1.1 nM
CN1Cc2ccc(OCCCN3CCN(c4cccc5sccc45)CC3)cc2C1=O [Example 123] | – | 1.4 nM | 0.7 nM
O=C1CCc2ccc(OCCCN3CCN(c4cccc5sccc45)CC3)cc21 [Example 125] | – | 3.9 nM | 2 nM
O=C1Cc2ccc(OCCCCN3CCN(c4cccc5sccc45)CC3)cc2N1 [Example 127] | – | 2.4 nM | 0.4 nM
O=C1Nc2cc(OCCCCN3CCN(c4cccc5sccc45)CC3)ccc2CO1 [Example 133] | – | 4.7 nM | 0.3 nM
CC1Oc2ccc(OCCCCN3CCN(c4cccc5sccc45)CC3)cc2NC1=O (stereo not shown) [Example 144] | – | 1.4 nM | 0.4 nM
O=C1NCc2ccc(OCCCCN3CCN(c4cccc5sccc45)CC3)cc2N1 [Example 146] | – | 2.4 nM | 0.1 nM

Compound | melting point | Ki [1] | Ki [2]
CCN(CC)CCNC(=O)c1ccc(OCCCN2CCN(c3cccc4sccc34)CC2)cc1 [Example 160] | – | 0.6 nM | 0.4 nM
CNC(=O)c1ccc(OC)c(OCCCN2CCN(c3cccc4sccc34)CC2)c1 [Example 281] | – | 0.6 nM | 0.3 nM
CCNCc1ccc(OCCCN2CCN(c3cccc4sccc34)CC2)cc1 [Example 286] | – | 0.8 nM | 0.2 nM
CN(C)Cc1ccc(OCCCN2CCN(c3cccc4sccc34)CC2)c(Cl)c1 [Example 303] | – | 2.5 nM | 1 nM
CCN(C)Cc1ccc(OCCCN2CCN(c3cccc4sccc34)CC2)c(C)c1 [Example 307] | – | 0.7 nM | 0.3 nM
c1cc(N2CCN(CCCOc3ccc(CN4CCOCC4)cc3)CC2)c2ccsc2c1 [Example 313] | – | 1.1 nM | 0.7 nM
CN1CCN(Cc2ccc(OCCCN3CCN(c4cccc5sccc45)CC3)cc2)CC1 [Example 314] | – | 0.8 nM | 0.8 nM
CC(=O)Nc1ccc(OCCCN2CCN(c3cccc4sccc34)CC2)cc1 [Example 343] | – | 0.5 nM | 0.9 nM
CCS(=O)(=O)Nc1ccc(OCCCN2CCN(c3cccc4sccc34)CC2)cc1 [Example 345] | – | 1.9 nM | 1.6 nM
COc1cc(NC=O)cc(C)c1OCCCN1CCN(c2cccc3sccc23)CC1 [Example 354] | – | 0.6 nM | 0.2 nM
COc1cc(N2CCOC2=O)cc(C)c1OCCCN1CCN(c2cccc3sccc23)CC1 [Example 358] | – | 1.1 nM | 0.2 nM
COc1cc(N2CCCC2=O)cc(CO)c1OCCCN1CCN(c2cccc3sccc23)CC1 [Example 359] | – | 1.1 nM | 0.2 nM
COC(=O)Nc1ccc(OCCCN2CCN(c3cccc4sccc34)CC2)c(F)c1 [Example 363] | – | 1.1 nM | 2 nM
CCN(CC)CCc1ccc(OCCCN2CCN(c3cccc4sccc34)CC2)cc1 [Example 368] | – | 0.7 nM | 0.4 nM
CN(C)CCc1ccc(OCCCN2CCN(c3cccc4sccc34)CC2)cc1 [Example 382] | – | 0.6 nM | 0.5 nM
CC(C)N(CCNC(=O)c1ccc(OCCCN2CCN(c3cccc4sccc34)CC2)cc1)C(C)C [Example 546] | – | 0.7 nM | 0.6 nM
O=C(NCCCn1ccnc1)c1ccc(OCCCN2CCN(c3cccc4sccc34)CC2)cc1 [Example 650] | – | 0.6 nM | 1.2 nM
O=C(c1ccc(OCCCN2CCN(c3cccc4sccc34)CC2)cc1)N1CCN(c2ccncc2)CC1 [Example 706] | – | 0.9 nM | 1 nM
CC1(C)C(=O)Nc2ccc(OCCCN3CCN(c4cccc5sccc45)CC3)cc21 [Example 1014] | – | 4.2 nM | 3.3 nM
Cn1c(=O)oc2cc(OCCCN3CCN(c4cccc5sccc45)CC3)ccc21 [Example 1016] | – | 2.3 nM | 2.2 nM
O=C1CCCc2ccc(OCCCN3CCN(c4cccc5sccc45)CC3)cc2N1 [Example 1026] | – | 3.5 nM | 1.9 nM
O=C1CCOc2cc(OCCCN3CCN(c4cccc5sccc45)CC3)ccc2N1 [Example 1027] | – | 2 nM | 1.9 nM
CN1CC(=O)N(C)c2ccc(OCCCN3CCN(c4cccc5sccc45)CC3)cc2C1=O [Example 1034] | – | 3.1 nM | 2.1 nM
COc1cc(N2CCN(C(C)=O)CC2)cc(CO)c1OCCCN1CCN(c2cccc3sccc23)CC1 [Example 1084] | – | 1.4 nM | 0.1 nM
